In PubChem BioAssay (NCI):
Values joined by “and” are separate entries in the source; they are usually repeats but may differ in a detail not shown here. Equal values may be shown once.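 Cultured in 96-well plates, cells were exposed to test compound for 48 hours across five concentrations. GI50 is the concentration that inhibits growth by half. TGI denotes the concentration required for complete inhibition of growth.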

Key:
Test in all cases: inhibition of tumour cell growth, NCI panel, 48 h
CAKI-1 renal = system: CAKI-1 renal
NCI-H522 lung = system: NCI-H522 lung
SNB-75 CNS = system: SNB-75 CNS
LOX IMVI melanoma = system: LOX IMVI melanoma
SF-268 CNS = system: SF-268 CNS
SF-295 CNS = system: SF-295 CNS
RPMI-8226 leukemia = system: RPMI-8226 leukemia
MCF7 breast = system: MCF7 breast
A549 NSCLC = system: A549 NSCLC
SR leukemia = system: SR leukemia

Structure (SMILES) | GI50 (CAKI-1 renal) | TGI (CAKI-1 renal) | GI50 (NCI-H522 lung) | TGI (NCI-H522 lung) | GI50 (SNB-75 CNS) | TGI (SNB-75 CNS) | GI50 (LOX IMVI melanoma) | TGI (LOX IMVI melanoma) | GI50 (SF-268 CNS) | TGI (SF-268 CNS) | GI50 (SF-295 CNS) | TGI (SF-295 CNS) | GI50 (RPMI-8226 leukemia) | TGI (RPMI-8226 leukemia) | GI50 (MCF7 breast) | TGI (MCF7 breast) | GI50 (A549 NSCLC) | TGI (A549 NSCLC) | GI50 (SR leukemia) | TGI (SR leukemia)
Cc1c(C(N)=O)sc2c1c(=O)n(Cc1ccccc1)c1nnc(S(=O)(=O)CC(=O)Nc3ccc(Cl)cc3)n21 | 2940 nM | 11.8 µM | 2530 nM | 6.73 µM | 2150 nM | 5.48 µM | 6150 nM | 20.6 µM | 6.8 µM | 27.4 µM | 3280 nM | 26.2 µM | 39100 nM | > 100 µM | 4760 nM | 70.2 µM | 2.3 µM | 6.04 µM | 6710 nM | 30.3 µM
CN(CCCN(C)CCC1CCCCC1)CCC1CCCCC1 | 1520 nM | 3.82 µM | 1770 nM | 4.36 µM | 2040 nM | 6.39 µM | 1610 nM | 3.55 µM | 5.14 µM | 18.9 µM | 1460 nM | 3.02 µM | 1470 nM | 5.09 µM | 1620 nM | 3.28 µM | 9.8 µM | 24.1 µM | 1190 nM | 4.21 µM
CCN(CC)CCC(=O)O[C@H]1CC[C@H](CC(C)[C@H]2CC(=O)C(C)C=C(C)[C@H](OC(=O)CCN(CC)CC)C(OC)C(=O)[C@@H](C)CC(C)/C=C/C=C/C=C(C)C(OC)CC3CC[C@H](C)[C@](O)(O3)C(=O)C(=O)N3CCCCC3C(=O)O2)CC1OC (stereo partly specified) | – | 3.06 µM | 17 nM | 1.98 µM and 1.89 µM | 100 nM | 1.77 µM and 0.55 µM | 7.95 nM | 1.94 µM and 1.65 µM | 1.16 µM | 3.06 µM and 3.99 µM | 1.6 nM | 1.46 µM and 1.98 µM | 6.66 nM | 5.24 µM and 2.95 µM | – | 3.54 µM and 3.78 µM | – | 7.54 µM and 9.53 µM | – | 3.46 µM and 0.618 µM
O=C1COCCN1c1ccc(NCc2cn(C(=O)c3ccc(Cl)cc3)c3ccccc23)cc1 | 53.1 nM | 1.8 µM | 5120 nM | 35.9 µM | 2600 nM | 52.6 µM | 5530 nM | 19.8 µM | 13.4 µM | 95.1 µM | 1830 nM | 33.5 µM | 2130 nM | 15.8 µM | 293 nM | 15 µM | 3.36 µM | > 100 µM | 3080 nM | > 100 µM
CC(=O)n1c(-c2ccc(Cl)c(Cl)c2)cn(-c2ccc(Cl)cc2)c1=O | 20800 nM | 43.9 µM | 19300 nM | 53.6 µM | 13600 nM | 31.4 µM | 83600 nM | > 100 µM | 23.5 µM | > 100 µM | 11900 nM | 28.8 µM | 18800 nM | 67.7 µM | 30800 nM | > 100 µM | 39.3 µM | > 100 µM | 16100 nM | 33 µM
O=c1[nH]nc(-c2ccccc2)c2c(-c3ccccc3)onc12 | 728 nM | > 100 µM | 648 nM | 24.3 µM | 960 nM | > 21.9 µM | 877 nM | > 100 µM | 0.969 µM | > 77.8 µM | 720 nM | > 100 µM | 474 nM | > 55.4 µM | 368 nM | > 100 µM | 0.529 µM | > 100 µM | 288 nM | –
NCCSC(C[N+](=O)[O-])c1ccccc1Cl (stereo unspecified) | 9880 nM | 24.3 µM | 24900 nM | > 56.1 µM | 4220 nM | 16.9 µM | 1690 nM | 3.56 µM | 2.79 µM | 8.53 µM | 1500 nM | 3.83 µM | 727 nM | 5.3 µM | 1130 nM | 3.2 µM | 4.87 µM | 15.5 µM | 3050 nM | > 100 µM
Cc1ccc([N+](=O)[O-])c2c(NCCC[N+](C)(C)[O-])ccnc12 | – | > 100 µM | – | 32.6 µM | – | > 100 µM | – | > 100 µM | – | > 100 µM | – | > 100 µM | – | > 100 µM | – | 38.1 µM | – | > 100 µM | – | > 100 µM
CCc1nc(N)nc(N)c1C#CC(C)c1cc(-c2ccnc(C)c2)c2oc(C)nc2c1 (stereo unspecified) | < 10.9 nM | 5.58 µM | 22.2 nM | 9.66 µM | 278 nM | 3.78 µM | < 10 nM | 2.3 µM | < 0.01 µM | 6.02 µM | < 10 nM | 6.39 µM | 77.1 nM | 3.31 µM | 11.8 nM | 11.9 µM | < 0.01 µM | 11.7 µM | < 34.2 nM | > 53.9 µM
Cc1cc(Cl)ccc1Nc1nc(C(F)(F)F)ccc1C(=O)Nc1cccc(C(F)(F)F)c1 | 3610 nM | 17.8 µM | 3470 nM | 13.4 µM | 3410 nM | 11.5 µM | 2790 nM | 8.55 µM | 4.22 µM | 16.6 µM | 3240 nM | 13.3 µM | 2730 nM | 12 µM | 2280 nM | 7.71 µM | 3.4 µM | 18 µM | 2560 nM | 8.28 µM
COc1cc2nncc(SCc3ccc(Cl)c(Cl)c3)c2cc1OC | – | > 100 µM | – | > 100 µM | – | 73 µM | – | > 100 µM | – | > 100 µM | – | > 100 µM | – | > 100 µM | – | > 100 µM | – | > 100 µM | – | > 100 µM
COc1ccc2c(c1OC)C(=O)O[C@@H]2[C@H]1c2c(c(Br)c3c(c2OC)OCO3)CCN1C | 4220 nM | 37.5 µM | 6780 nM | > 100 µM | 93300 nM | > 100 µM | 6000 nM | > 100 µM | 18 µM | > 100 µM | 10800 nM | 47.4 µM | 6970 nM | > 100 µM | 4180 nM | > 100 µM | 8.57 µM | > 100 µM | 918 nM | > 100 µM
COc1cc2c3cc1Oc1c(OC)c(OC)cc4c1C(Cc1ccc(cc1)Oc1cc(ccc1O)CC3N(C)CC2)N(C)CC4 (stereo unspecified) | – | 42.9 µM and 31.4 µM | 1570 nM and 4860 nM | 14.2 µM and 20.5 µM | – | 25.3 µM and 23.8 µM | 6390 nM and 2560 nM | 19.1 µM | – | 44.6 µM and 24.7 µM | 15400 nM and 7680 nM | 28.9 µM and 21.4 µM | – | 32.1 µM | – | 20.8 µM | – | 39.6 µM and 25.2 µM | – | 8.98 µM and 7.5 µM
Oc1ccc(O)c2c1C1(Cl)C(Cl)=C(Cl)C2(Cl)C1(Cl)Cl | 2440 nM | 8.31 µM | 3550 nM | 12.1 µM | 1520 nM | 6.84 µM | 3180 nM | 13.4 µM | 3.31 µM | 15.5 µM | 1670 nM | 7.2 µM | 4820 nM | 63.3 µM | 6400 nM | > 100 µM | 5.89 µM | 37.4 µM | 2650 nM | 24.7 µM
COc1cc(NC(=O)c2cc(O)c(C/C=C(\C)CCC=C(C)C)c(O)c2)cc2c1O[C@]1(C)CC[C@@H](O)C(C)(C)[C@H]1C2 | 1530 nM | 11.8 µM | 2020 nM | 6.5 µM | 444 nM | 2.75 µM | 1350 nM | 2.89 µM | 1.56 µM | 5.74 µM | 306 nM | 1.52 µM | 262 nM | 1.32 µM | 1080 nM | 5.73 µM | 1.98 µM | 6.66 µM | 418 nM | 4.34 µM
Nc1nc(Cl)nc2c1ncn2[C@@H]1O[C@H](COS(N)(=O)=O)[C@@H](O)[C@H]1O | 20.8 nM | 0.0506 µM | 5.03 nM and 21.2 nM | 0.0244 µM and 0.0623 µM | 20.2 nM and 20.9 nM | 0.0558 µM and 0.0554 µM | 18.1 nM and 23.1 nM | 0.0356 µM and 0.0552 µM | 0.0234 µM and 0.0269 µM | 0.0768 µM and 0.088 µM | 24.4 nM and 32.4 nM | 0.0751 µM and 0.143 µM | 25.1 nM and 25.5 nM | 0.0975 µM and 0.072 µM | 24 nM and 29.3 nM | – | 0.0259 µM and 0.0263 µM | 0.0829 µM and 0.0823 µM | 3.07 nM | 0.0487 µM and 0.0418 µM
Cc1ccc(-c2c3c(N)c4c(nc3nc3c2c(C)nn3-c2ccccc2)CCC4)cc1 | 6890 nM | 16.6 µM | 18200 nM | 40.3 µM | 2070 nM | 6.66 µM | 1980 nM | 3.99 µM | 3.26 µM | 11 µM | 7450 nM | 21.9 µM | 2230 nM | 5.53 µM | 1750 nM | 4.34 µM | 2.5 µM | 7.49 µM | 472 nM | 9.61 µM
O=C1OC(OC/C(Br)=C(/Br)COC2OC(=O)C(Cl)=C2Cl)C(Cl)=C1Cl (stereo unspecified) | – | 7.68 µM | – | 4.53 µM | – | 36 µM | – | 8.36 µM | – | 35.5 µM | – | 34.2 µM | – | 5.19 µM | – | 30.9 µM | – | 48.9 µM | 1600 nM | 5.46 µM
c1ccc2c(CN3CCC(C4CCN(Cc5cccc6ccccc56)CC4)CC3)cccc2c1 | 3700 nM and 34300 nM | 21.2 µM and > 100 µM | – | 26.3 µM and 23.4 µM | 2770 nM and > 27700 nM | – | 4330 nM and 10200 nM | 16.8 µM and 23.4 µM | 8.99 µM and 78.7 µM | 28.4 µM and > 100 µM | – | 19.4 µM and 14.2 µM | – | 15 µM and 10.9 µM | – | > 73.7 µM | – | > 100 µM | 1470 nM and 10200 nM | –
